Values quoted from earlier work in publication PMC7765930, “Antiproliferative Phenanthrenes from Juncus tenuis: Isolation and Diversity-Oriented Semisynthetic Modification” (Molecules, 2020).

Columns and labels:
HL-60 cell line = test system: HL-60 cell line; set-up: method as in PMID 22976333; conditions: read-out: IC50, cytotoxicity against HL-60; cited from earlier work
MCF-7 cells = test system: MCF-7 cells; set-up: method as in PMID 19193043; conditions: read-out: IC50, growth inhibition MCF-7; cited from earlier work
PC-3 cells = test system: PC-3 cells; set-up: method as in PMID 19193043; conditions: read-out: IC50, growth inhibition PC-3; cited from earlier work
A549 cells = test system: A549 cells; set-up: method as in PMID 19193043; conditions: read-out: IC50, growth inhibition A549; cited from earlier work
HCT-8 cells = test system: HCT-8 cells; set-up: method as in PMID 19193043; conditions: read-out: IC50, growth inhibition HCT-8; cited from earlier work
[1] = test system: vincristine resistant KBVIN cells; set-up: method as in PMID 19193043; conditions: read-out: IC50, growth inhibition KBVIN; cited from earlier work
KB cells = test system: KB cells; set-up: method as in PMID 19193043; conditions: read-out: IC50, growth inhibition KB; cited from earlier work
DU145 cells = test system: DU145 cells; set-up: method as in PMID 19193043; conditions: read-out: IC50, growth inhibition DU145; cited from earlier work

SMILES | IC50 (HL-60 cell line) [nM] | IC50 (MCF-7 cells) [nM] | IC50 (PC-3 cells) [nM] | IC50 (A549 cells) [nM] | IC50 (HCT-8 cells) [nM] | IC50 [1] [nM] | IC50 (KB cells) [nM] | IC50 (DU145 cells) [nM]
COC1=C(OC)C(=O)c2c(ccc3cccc(O)c23)C1=O [5-hydroxy-2,3-dimethoxy-1,4-phenanthrenequinone] | 4700 |  |  |  |  |  |  | 
COC1=CC(=O)c2ccc3cc(OC)c(OC)c(O)c3c2C1=O [calanquinone A] |  | 100 | 510 | 610 | 640 | 1430 | 1020 | 1080
